Laboratory results: US7759346B2, “[[2-(amino-3,4-dioxo-1-cyclobuten-1-yl)amino]alkyl]-acid derivatives for the treatment of pain” (priority 2001, dated 2010)
Like-named read-outs stand apart in the source and are kept apart here.

Legend:
Spraque-Dawley rats [1] = assay: Warm-water tail withdrawal combination studies with morphine; type: in vivo, rat; details: 10.0 mg/kg IP, 30 min before testing
Method: (§1) The terminal 10 cm of the tail was placed into a thermos bottle containing water warmed to 38, 42, 46, 50, 54, or 58° C. The latency in seconds for the animal to remove the tail from the water was used as a measure of nociception.
Combination compound studies. […] Compounds were administered IP at the same time 30 min before testing.
(§2) Test Method 1 Data Analysis—The temperature that produced a half-maximal increase in the tail-withdrawal latency (i.e., T10) was calculated from each temperature-effect curve. The T10 was determined by interpolation from a line drawn between the point above and the point below 10 sec on the temperature-effect curve. For these studies, thermal hypersensitivity was defined as a leftward shift in the temperature-effect curve and a decrease in the T10 value. Reversal of thermal hypersensitivity was defined as a return to baseline of the temperature-effect curve and the T10 value and was calculated according to the following equation: […]

Spraque-Dawley rats [2] = assay: Chronic Constriction Injury-induced tactile hypersensitivity (von Frey); type: in vivo, rat; details: IP, one week after CCl surgery
Description: Rats were anesthetized with 3.5% halothane in O2 at 1 L/min and maintained with 1.5% halothane in O2 during surgery. A modified chronic sciatic nerve constriction injury (Mosconi & Kruger, 1996; Bennett & Xie, 1988) was produced by a cutaneous incision and a blunt dissection through the biceps femoris to expose the sciatic nerve. A PE 90 Polyethylene tubing (Intramedic, Clay Adams; Becton Dickinson Co.) cuff (2 mm length) was placed around the sciatic nerve at the level of the mid-thigh. The wound was closed in layers using 4-0 silk suture and wound clips. Testing was conducted 6-10 days after surgery.
Animals were placed in elevated wire cages and allowed 45-60 minutes to acclimate to the testing room. Baseline tactile sensitivity was assessed using a series of calibrated von Frey monofilaments (Stoelting; Wood Dale, Ill.) 0-3 days before surgery. Von Frey monofilaments were applied to the mid-plantar hind paw in sequential ascending or descending order, as necessary, to hover as closely as possible to the threshold of responses. The threshold was indicated by the lowest force that evoked a brisk withdrawal response to the stimuli. Thus, a withdrawal response led to the presentation of the next lighter stimulus and the lack of a withdrawal response led to the presentation of the next stronger stimulus. Rats with baseline thresholds <10 g force were excluded from the study. […] Under cumulative dosing conditions, compounds were administered IP every 30 minutes with the cumulative dose increasing in ½ log unit increments. Tactile hypersensitivity was assessed 20-30 minutes following each drug administration.
Test Method 2 Data Analysis—The 50% threshold values (in gm force) estimated by the Dixon non-parametric test (Chaplan et al, 1994) was calculated and fifteen-grams of force was used as the maximal force. Dose-effect curves were generated for each experimental condition for each rat. Individual tactile hypersensitivity threshold values were averaged to provide a mean (±1 SEM). Reversal of tactile hypersensitivity was defined as a return to baseline tactile sensitivity and was calculated according to the following equation:
(§3) [formula] in which 50%^drug+CCl is the 50% value after compound in animals approximately one week after CCl surgery, 50%^CCl is the 50% value approximately one week after CCl surgery alone, and 50%^baseline is the 50% value before CCl surgery. Maximal effect of 100% reversal represents a return to the mean pre-operative threshold value for subjects in that experimental condition. Test Method 3: Scheduled-Controlled Responding.

Spraque-Dawley rats [3] = assay: Scheduled-controlled responding (operant responding, food presentation)
Description: as §3
Rats were trained under a multiple-cycle procedure during experimental sessions conducted five days each week. Each training cycle consisted of a 1-min pretreatment period followed by a 10-min response period. During the pretreatment period, stimulus lights were not illuminated, and responding had no scheduled consequences. During the response period, the left or right stimulus lights were illuminated (counterbalanced among subjects), the response lever was extended and subjects could respond under a fixed ratio 30 schedule of food presentation. Training sessions consisted of 3 consecutive cycles. Testing sessions were identical to training sessions except that a single dose of drug was administered at the start of the first cycle.
Data analysis. Operant response rates from individual animals were averaged for the three cycles during test sessions and were converted to percent of control response rates using the average rate from the previous training day as the control value (i.e., average of three cycles). Data are presented as the mean (±1 SEM) response rate as a percent of control.

Spraque-Dawley rats [4] = assay: Observable signs of sedation and ataxia
[5] = tested on: rats trained to discriminate between saline and PCP; assay: PCP-like discriminative stimulus effects (substitution for PCP); type: in vivo
[6] = PCP-like effects relative to doses effective in an ischemia model; details: in vivo
Spraque-Dawley rats [7] = assay: Prostaglandin E2-induced thermal hypersensitivity, warm-water tail withdrawal, single compound studies; type: in vivo, rat; details: given 30 min before PGE2
Method: Ketamine and dizocilpine are high affinity use-dependent NMDA receptor channel blockers, while memantine is a moderate affinity use-dependent NMDA receptor channel blocker. CGS-19755 is a competitive NMDA antagonist and ifenprodil is a […] polyamine antagonist. Test Method 1: Prostaglandin E2-Induced Thermal Hypersensitivity.
as §1
(§4) Following the assessment of baseline thermal sensitivity, thermal hypersensitivity was produced by a 50 μL injection of 0.1 mg prostaglandin E2 (PGE2) into the terminal 1 cm of the tail. Temperature-effect curves were generated before (baseline) and after (15, 30, 60, 90 and 120 min) the PGE2 injection.
Single compound studies. The ability of drugs to reverse PGE2-induced thermal hypersensitivity was assessed using a single dose time-course procedure. Under this procedure, a single dose of the compound to be tested was administered intraperitoneally (IP), orally (PO) or intranasally (IN) 30 min before the injection of PGE2. […] sensitivity was assessed 30 min after PGE2 injection.
Test Method 1 Data Analysis—The temperature that produced a half-maximal increase in the tail-withdrawal latency (i.e., T10) was calculated from each temperature-effect curve. The T10 was determined by interpolation from a line drawn between the point above and the point below 10 sec on the temperature-effect curve. For these studies, thermal hypersensitivity was defined as a leftward shift in the temperature-effect curve and a decrease in the T10 value. Reversal of thermal hypersensitivity was defined as a return to baseline of the temperature-effect curve and the T10 value and was calculated according to the following equation:
[formula] in which T10^drug+PGE2 is the T10 after a drug in combination with PGE2, T10^PGE2 is the T10 after PGE2 alone, and T10^baseline is the T10 under control conditions. A % MPE value of 100 indicates a complete return to the baseline thermal sensitivity observed without the PGE2 injection. […] Test Method 2: Chronic Constriction Injury

[8] = tested on: cingulate and retrosplenial cortices of mice and rats; assay: Induction of vacuoles (vacuolization) versus behaviorally effective doses; details: in vivo
Spraque-Dawley rats [9] = type: in vivo, rat
Method: as §1, §4
Compounds were administered IP at the same time as PGE2, which was administered 30 min before testing.
as §2

O=c1c2c(c1=O)N(CCP(=O)(O)O)CCCN2 [Compound A, [2-(8,9-Dioxo-2,6-diazabicyclo[5.2.0]non-1(7)-en-2-yl)ethyl]phosphonic acid]
Change from Baseline (T10) (Spraque-Dawley rats [1]): −0.3 | % Reversal of CCl-induced tactile hypersensitivity (Spraque-Dawley rats [2]; cumulative dose 1 mg/kg): 13% | % Reversal of CCl-induced tactile hypersensitivity (Spraque-Dawley rats [2]; cumulative dose 3 mg/kg): 45% | % Reversal of CCl-induced tactile hypersensitivity (Spraque-Dawley rats [2]; cumulative dose 10 mg/kg, 10 mg/kg): 97% | Operant responding: response rate as a percent of control (Spraque-Dawley rats [3]; IP, 3 mg/kg): 111% | Operant responding: response rate as a percent of control (Spraque-Dawley rats [3]; IP, 10 mg/kg): 86% | Operant responding: response rate as a percent of control (Spraque-Dawley rats [3]; PO, 10 mg/kg): 112% | Operant responding: response rate as a percent of control (Spraque-Dawley rats [3]; PO, 30 mg/kg): 97% | Operant responding: response rate as a percent of control (Spraque-Dawley rats [3]; PO, 100 mg/kg): 100% | rates of responding (in words) (Spraque-Dawley rats [3]; schedule of food presentation, Compound A IP or PO at doses that reversed hypersensitivity): did not significantly modify rates of responding | ataxia or sedation (Spraque-Dawley rats [4]; at doses needed to relieve pain in preclinical models): did not produce ataxia or sedation | sedation or ataxia (Spraque-Dawley rats [4]; doses effective in PGE2 test (as high as 178 mg/kg)): not associated with sedation or ataxia | sedation or ataxia (Spraque-Dawley rats [4]; doses used in the CCl-induced tactile hypersensitivity study, IP): not associated with sedation or ataxia | substitution for PCP [5]: did not substitute for PCP | devoid of many PCP-like effects up to doses times higher than those effective in an ischemia model [6]: 4-10 | % MPE (reversal of PGE2-induced thermal hypersensitivity) (Spraque-Dawley rats [7]; IP, 1 mg/kg): −7% | % MPE (reversal of PGE2-induced thermal hypersensitivity) (Spraque-Dawley rats [7]; IP, 3 mg/kg): 66% | % MPE (reversal of PGE2-induced thermal hypersensitivity) (Spraque-Dawley rats [7]; IP, 10 mg/kg, 10 mg/kg): 79% | % MPE (reversal of PGE2-induced thermal hypersensitivity) (Spraque-Dawley rats [7]; PO, 10 mg/kg): 5% | % MPE (reversal of PGE2-induced thermal hypersensitivity) (Spraque-Dawley rats [7]; PO, 30 mg/kg): 23% | % MPE (reversal of PGE2-induced thermal hypersensitivity) (Spraque-Dawley rats [7]; PO, 100 mg/kg, 100 mg/kg): 87% | effectiveness/vacuolization ratio [8]: ≤ 16 | Change from Baseline (T10) (Spraque-Dawley rats [9]; 10.0 mg/kg IP with PGE2, PGE2 + vehicle −5.6): −1.5 | T10 (temperature producing half-maximal tail-withdrawal latency) (Spraque-Dawley rats [9]; 10 mg/kg IP with PGE2, PGE2 alone 44.8±0.1, vehicle 50.3±0.4): 48.8±0.2
